# Measurements reported in patent US9340803B2, “3-hydroxypropionic acid and other organic compounds” (Cargill, Incorporated, priority 2000, dated 2016).
# What was measured:
# [1] = OS17 polypeptide activity, disappearance of NAD(P)H at 340 nm; assay type: biochemical, Chloroflexus aurantiacus; conditions: 3-HP 1 mM as substrate; protein extract of BL21-DE3/pET11a-OS17
# Description: To assay OS17 polypeptide function, a 100 mL culture of BL21-DE3/pET11a-OS17 cells was started using 1 mL of overnight grown culture as an inoculum. The culture was grown to an OD of 0.5-0.6 and was induced with 100 μM IPTG. After two and a half hours of induction, the cells were harvested by spinning at 8000 rpm in the floor centrifuge. The cells were washed with 10 mM Tris-HCl (pH 7.8) and passed twice through a French Press at a gauge pressure of 1000 psi. The cell debris was removed by centrifugation at 15,000 rpm. The activity of the OS17 polypeptide was measured spectrophotometrically, and the products formed during this enzymatic transformation were detected by LC/MS. The assay mix was as follows (J. Bacteriol., 181:1088-1098 (1999)):
# The initial rate of reaction was measured by monitoring the disappearance of NAD(P)H at 340 nm. The activity of the OS17 polypeptide was measured using 3-HP as the substrate. The units/mL of total protein was calculated using the formula set forth in Example 1. The activity of the expressed OS17 polypeptide was calculated to be 0.061 U/mL of total protein. The reaction products were purified using a Sep Pak Vac column (Waters). The column was conditioned with 1 mL methanol and washed two times with 0.5 mL 0.1% TFA. […] The reaction products were analyzed by LC/MS.
# [2] = tested on: CoA transferase (propionyl-CoA transferase or pct) from Megasphaera elsdenii; assay: CoA transferase activity assay (DTNB/citrate synthase coupled, OD 412 nm) with cell free extract; assay type: biochemical; conditions: 25 μM CoA-ester substrate, 200 mM sodium acetate, pH 7.0; cell free extract of E. coli expressing the CoA transferase
# Description: The plasmid was transformed into Tuner (DE3) pLacI chemically competent cells (Novagen, Madison, Wis.), and expression from the construct tested. Briefly, a culture was grown overnight to saturation and diluted 1:20 the following morning in fresh LB medium with the appropriate antibiotics. The culture was grown at 37° C. with aeration to an OD600 of about 0.6. The culture was induced with IPTG at a final concentration of 100 μM. The culture was incubated for an additional two hours at 37° C. with aeration. Aliquots were taken pre-induction and 2 hours post-induction for SDS-PAGE analysis. A band of the expected molecular weight (55,653 Daltons predicted from the sequence) was observed after IPTG treatment. This band was not observed in cells containing a plasmid lacking the nucleic acid encoding the transferase.
# Cell free extracts were prepared to assess enzymatic activity. Briefly, the cells were harvested by centrifugation and disrupted by sonication. The sonicated cell suspension was centrifuged to remove cell debris, and the supernatant was used in the assays.
# Transferase activity was measured in the following assay. The assay mixture used contained 100 mM potassium phosphate buffer (pH 7.0), 200 mM sodium acetate, 1 mM dithiobisnitrobenzoate (DTNB), 500 μM oxaloacetate, 25 μM CoA-ester substrate, and 3 μg/mL citrate synthase. If present, the CoA transferase transfers the CoA from the CoA ester to acetate to form acetyl-CoA. The added citrate synthase condenses oxaloacetate and acetyl-CoA to form citrate and free CoASH. The free CoASH complexes with DTNB, and the formation of this complex can be measured by a change in the optical density at 412 nm. The activity of the CoA transferase was measured using the following substrates: lactyl-CoA, propionyl-CoA, acrylyl-CoA, and 3-hydroxypropionyl-CoA. The units/mg of protein was calculated using the following formula: (ΔE/min*Vf*dilution factor)/(VS*14.2)=units/mL where ΔE/min is the change in absorbance per minute at 412 nm, Vf is the final volume of the reaction, and VS is the volume of sample added. The total protein concentration of the cell free extract was about 1 mg/mL so the units/mL equals units/mg.
# [3] = tested on: 3-hydroxypropionyl-CoA dehydratase (OS19); assay: 3-hydroxypropionyl-CoA dehydratase specificity control reactions, MALDI-TOF MS; assay type: biochemical, Chloroflexus aurantiacus; conditions: 1 mM CoA ester, 80% D2O
# Description: Cell free extracts were prepared by growing cells as described above. The cells were harvested by centrifugation and disrupted by sonication. The sonicated cell suspension was centrifuged to remove cell debris, and the supernatant was used in the assays. The ability of the 3-hydroxypropionyl-CoA dehydratase to perform the following three reactions was measured using MALDI-TOF MS:
# The assay mixture contained 50 mM Tris-HCl (pH 7.5), 1 mM CoA ester, and about 1 μg cell free extract. Reactions were allowed to proceed at room temperature and were stopped by adding 1 volume 10% trifluroacetic acid (TFA). The reaction mixtures were purified prior to MALDI-TOF MS analysis using Sep Pak Vac C18 50 mg columns (Waters, Inc.). The columns were conditioned with 1 mL methanol and then equilibrated with two washes of 1 mL 0.1% TFA. The sample was applied to the column, and the flow through was discarded. The column was washed twice with 1 mL 0.1% TFA. The sample was eluted in 200 μL 40% acetonitrile, 0.1% TFA. The acetonitrile was removed by centrifugation in vacuo. Samples were prepared for MALDI-TOF MS analysis by mixing 1:1 with 110 mM sinapinic acid in 0.1% TFA, 67% acetonitrile. The samples were allowed to air dry.
# A series of control reactions were performed to confirm the specificity of the 3-hydroxypropionyl-CoA dehydratase. […]
Compound,activity of the expressed OS17 polypeptide [1],"CoA transferase activity, Units/mg [2]",activity of 3-hydroxypropionyl-CoA dehydratase enzyme on CoA ester [3]
"OS17 polypeptide: C. aurantiacus polypeptide having CoA synthase, dehydratase, and dehydrogenase activity (propionyl-CoA synthetase)",0.061 U/mL of total protein,,
CC(C)(COP(=O)(O)OP(=O)(O)OC[C@H]1O[C@@H](n2cnc3c(N)ncnc32)[C@H](O)[C@@H]1OP(=O)(O)O)[C@@H](O)C(=O)NCCC(=O)NCCSC(=O)CCO [3-Hydroxypropionyl-CoA],,110 Units/mg,active
CC(O)C(=O)SCCNC(=O)CCNC(=O)[C@H](O)C(C)(C)COP(=O)(O)OP(=O)(O)OC[C@H]1O[C@@H](n2cnc3c(N)ncnc32)[C@H](O)[C@@H]1OP(=O)(O)O (stereo partly shown) [Lactyl-CoA],,211 Units/mg,not active
C=CC(=O)SCCNC(=O)CCNC(=O)[C@H](O)C(C)(C)COP(=O)(O)OP(=O)(O)OC[C@H]1O[C@@H](n2cnc3c(N)ncnc32)[C@H](O)[C@@H]1OP(=O)(O)O [Acrylyl-CoA],,118 Units/mg,
CCC(=O)SCCNC(=O)CCNC(=O)[C@H](O)C(C)(C)COP(=O)(O)OP(=O)(O)OC[C@H]1O[C@@H](n2cnc3c(N)ncnc32)[C@H](O)[C@@H]1OP(=O)(O)O [Propionyl-CoA],,144 Units/mg,
